Laboratory results: patent US20010047027A1, “Prostaglandin D2 receptor antagonists” (priority 2000, published 2001)

Target: T1, prostanoid DP receptor (prostaglandin D receptor) (Homo sapiens, UniProt Q13258)
T1 construct: expressed in transfected cells; host or cells: HEK293(EBNA) cells; membranes, 160,000 x g fraction
T1 sequence (Q13258 1-359): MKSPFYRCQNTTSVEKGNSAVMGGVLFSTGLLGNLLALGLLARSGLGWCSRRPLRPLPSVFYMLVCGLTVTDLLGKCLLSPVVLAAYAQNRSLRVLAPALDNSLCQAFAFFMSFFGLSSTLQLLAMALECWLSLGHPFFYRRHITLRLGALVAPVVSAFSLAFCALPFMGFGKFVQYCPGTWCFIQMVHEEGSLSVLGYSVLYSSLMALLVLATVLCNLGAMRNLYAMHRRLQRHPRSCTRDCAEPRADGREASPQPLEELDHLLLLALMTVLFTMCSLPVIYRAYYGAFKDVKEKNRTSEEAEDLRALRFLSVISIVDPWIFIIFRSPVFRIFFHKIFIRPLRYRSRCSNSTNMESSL
Assay: Radioligand binding assay using membranes from cells that express recombinant prostanoid DP receptor
Conditions: for Ki: membranes of HEK293(EBNA) cells expressing DP, 0.7 nM [3H]PGD2, 60 min at room temperature, n = 5, read-out: Affinity (Ki) for the prostaglandin D receptor; for affinity for the prostaglandin D2 receptor, in words: comparison of the 1R isomers with the other two diastereomers
Method: Radioligand binding assays using membranes from cells that express recombinant prostanoid DP receptor (DP).
Radioligand binding assays are conducted essentially as previously described (Abramovitz et al., Biochem. Biophys. Acta 1483-2, 285-293, 2000). HEK293(EBNA) cells expressing DP are grown in supplemented DMEM complete medium at 37° C. in a humidified atmosphere of 6% CO2 in air, and then harvested. Cells are disrupted by nitrogen cavitation at 800 psi for 30 min. on ice in the presence of protease inhibitors (2 mM phenylmethylsulfonylfluoride, 10 μM E-64, 100 μM leupeptin and 0.05 mg/mL pepstatin). Membranes are prepared by differential centrifugation (1000×g for 10 min, then 160,000×g for 30 min, all at 4° C.). The 160,000×g pellets are resuspended in 10 mM HEPES/KOH (pH 7.4) containing 1 mM EDTA at approximately 5-10 mg/mL protein by Dounce homogenization (Dounce A; 10 strokes), frozen in liquid nitrogen and stored at −80° C. DP receptor binding assays are performed in a final incubation volume of 0.2 mL in 10 mM HEPES/KOH (pH 7.4), containing 1 mM EDTA, 10 mM MnCl2, 0.7 nM [^3H]PGD2 (115-200 Ci/mmol). The reaction was initiated by addition of 30-60 μg membrane protein from the 160,000×g fraction. Test compounds are added in dimethylsulfoxide (Me2SO) at 1% (v/v) in all incubations. Non-specific binding was determined in the presence of 1-10 μM of non-radioactive PGD2. Incubations are conducted for 60 min. at room temperature. Incubations are terminated by rapid filtration at 4° C. Radioactivity bound to the individual filters is determined by scintillation counting. Maximum specific binding is defined as the total binding minus the non-specific binding. Specific binding is determined at each concentration of test compound and is expressed as a percentage of the maximum specific binding. Sigmoidal equilibrium competition curves were constructed by expressing percentage maximum specific binding as a function of ligand concentration and analyzed by a validated custom designed software employing a simplex driven non-linear least-squares curve fitting routine based on a four parameter equation to determine the inflection point concentration (InPt). The corresponding Kivalues were derived from the equation Ki=InPt/1+([radioligand]/KD).

Ki | affinity for the prostaglandin D2 receptor, in words | SMILES
119 ± 39 nM | – | C[S+]([O-])c1cccc2c3c(n(Cc4ccc(Cl)cc4)c12)C(CC(=O)O)CCC3 (single isomer, unassigned) [Enantiomer of Ia, reference compound]
72 ± 4 nM | – | C[S+]([O-])c1cccc2c3c(n(Cc4ccc(Cl)cc4)c12)C(CC(=O)O)CCC3 (single isomer, unassigned) [Enantiomer of Ib, reference compound]
1.7 ± 0.3 nM | much higher affinity | C[S@+]([O-])c1cccc2c3c(n(Cc4ccc(Cl)cc4)c12)[C@@H](CC(=O)O)CCC3 [Compound Ia, 2-[(1R)-9-(4-chlorobenzyl)-8-((S)-methylsulfinyl)-2,3,4,9-tetrahydro-1H-carbazol-1-yl]acetic acid]
2.1 ± 0.1 nM | much higher affinity | C[S@@+]([O-])c1cccc2c3c(n(Cc4ccc(Cl)cc4)c12)[C@@H](CC(=O)O)CCC3 [Compound Ib, 2-[(1R)-9-(4-chlorobenzyl)-8-((R)-methylsulfinyl)-2,3,4,9-tetrahydro-1H-carbazol-1-yl]acetic acid]
